These results are taken from patent publication US6926892B2, “Protecting plants from oomycete pathogens by treatment with compositions containing serratamolide and oocydin a from Serratia marcescens” (HMV Corporation, priority 2000, dated 2005).

The test system of experiment [1] is Oomycetes. To be noted: from Strobel et al. 1999 / U.S. Ser. No. 09/858,871; cited from earlier work.
In experiment [2] the test system is Oomycetes. As to the kind of experiment: Minimum inhibitory concentration tests against a number of plant fungal pathogens (summary). Particulars: e.g., P. cactorum, P. capsici, P. ultimum. In kind it is cell-based. As for the experimental part: (§1) 900 μl of potato dextrose broth was placed into the wells of a sterile 24-well culture plate. Serratamolide (in methanol) was added to the wells in concentrations of 0, 3.3, 10, 33 and 100 μg/ml. 20 μl methanol was added to one row to serve as a control. Fungal cultures to be tested were grown on PDA plates for three to five days. Pieces of agar containing the cultures were transferred to sterile microfuge tubes containing 0.5 ml sterile distilled water and broken up using a sterile Teflon pestle. 100 μl of PD broth containing the mycelia was added to each well, and growth inhibition was monitored over 3 days. At the end of 3 days cultures were transferred to a ground glass homogenizer, gently broken up, diluted in distilled water and the optical density measured using a Spectronic 20 spectrophotometer at 660 nm. The minimum inhibitory concentration was determined as the concentration of serratamolide compound needed to effect a 10% reduction in growth.

For a further experiment, the system named is Botrytis cinera. Nature of the experiment: Minimum inhibitory concentration in potato dextrose broth, 24-well plate. Particulars: 3 days, MIC = concentration needed to effect a 10% reduction in growth (OD 660 nm). In kind it is cell-based. The method, then: as §1
Another experiment deals with Phytophtora parasitica. Described as above. In kind it is cell-based. Particulars: 3 days, MIC = concentration needed to effect a 10% reduction in growth (OD 660 nm). As for the experimental part:
as §1

A further experiment deals with Phytophthora cactorum. The experiment is described as above. It counts as cell-based. Particulars: 3 days, MIC = concentration needed to effect a 10% reduction in growth (OD 660 nm). The method, then: as §1
Another experiment deals with Pythium ultimum. Described as above. In kind it is cell-based. To be noted: 3 days, MIC = concentration needed to effect a 10% reduction in growth (OD 660 nm). As for the experimental part:
as §1

The subject of the next experiment is Phytophthora capsici. The experiment is described as above. It counts as cell-based. To be noted: 3 days, MIC = concentration needed to effect a 10% reduction in growth (OD 660 nm). The method, then:
as §1

The next experiment relates to Rhizoctonia solani. The experiment is described as above. It counts as cell-based. Particulars: 3 days, MIC = concentration needed to effect a 10% reduction in growth (OD 660 nm). The method, then:
as §1

Converted amounts (≈) assume the structure as drawn.

Consider `CC(=O)OC1CC(=O)O[C@H]2C[C@H](CC/C(Cl)=C\C/C=C\1C)O[C@H]2[C@@H](O)/C=C(\C)CC(=O)O` (some centres unmarked) [oocydin A], for which the “Activity against Oomycetes, MICs relative to metalaxyl” value with Oomycetes [1] is “selective lethal activity against Oomycetes at MICs lower or similar to those noted for metalaxyl”.
For the compound `CCCCCCC[C@@H]1CC(=O)N[C@@H](CO)C(=O)O[C@H](CCCCCCC)CC(=O)N[C@@H](CO)C(=O)O1` [serratamolide], the “Spectrum of activity among plant pathogens tested” value in the experiment on Oomycetes [2] is “active against Oomycetes only”. Besides, the Minimum inhibitory concentration in the experiment with Botrytis cinera was above 100 µg/mL; in the experiment with Phytophtora parasitica, 6 µg/mL (≈ 11.7 µM); with Phytophthora cactorum, 60 µg/mL (≈ 117 µM); in the experiment on Pythium ultimum, 6 µg/mL (≈ 11.7 µM); in the experiment on Phytophthora capsici, 10 µg/mL (≈ 19.4 µM); in the experiment with Rhizoctonia solani, above 100 µg/mL.
